Experimental findings from ChEMBL document CHEMBL2062454, “SAR studies around a series of triazolopyridines as potent and selective PI3Kγ inhibitors” (Bioorg Med Chem Lett, 2012) are described below.

The target of data set [1] is T1, Phosphatidylinositol 4,5-bisphosphate 3-kinase catalytic subunit gamma isoform (Homo sapiens, UniProt P48736). The data set can be described thus: Inhibition of PI3Kgamma by high throughput chemoproteomics binding assay.
Data set [2] has as its target T2, Phosphatidylinositol 4,5-bisphosphate 3-kinase catalytic subunit delta isoform (Homo sapiens, UniProt O00329).
T2 sequence (O00329 whole entry): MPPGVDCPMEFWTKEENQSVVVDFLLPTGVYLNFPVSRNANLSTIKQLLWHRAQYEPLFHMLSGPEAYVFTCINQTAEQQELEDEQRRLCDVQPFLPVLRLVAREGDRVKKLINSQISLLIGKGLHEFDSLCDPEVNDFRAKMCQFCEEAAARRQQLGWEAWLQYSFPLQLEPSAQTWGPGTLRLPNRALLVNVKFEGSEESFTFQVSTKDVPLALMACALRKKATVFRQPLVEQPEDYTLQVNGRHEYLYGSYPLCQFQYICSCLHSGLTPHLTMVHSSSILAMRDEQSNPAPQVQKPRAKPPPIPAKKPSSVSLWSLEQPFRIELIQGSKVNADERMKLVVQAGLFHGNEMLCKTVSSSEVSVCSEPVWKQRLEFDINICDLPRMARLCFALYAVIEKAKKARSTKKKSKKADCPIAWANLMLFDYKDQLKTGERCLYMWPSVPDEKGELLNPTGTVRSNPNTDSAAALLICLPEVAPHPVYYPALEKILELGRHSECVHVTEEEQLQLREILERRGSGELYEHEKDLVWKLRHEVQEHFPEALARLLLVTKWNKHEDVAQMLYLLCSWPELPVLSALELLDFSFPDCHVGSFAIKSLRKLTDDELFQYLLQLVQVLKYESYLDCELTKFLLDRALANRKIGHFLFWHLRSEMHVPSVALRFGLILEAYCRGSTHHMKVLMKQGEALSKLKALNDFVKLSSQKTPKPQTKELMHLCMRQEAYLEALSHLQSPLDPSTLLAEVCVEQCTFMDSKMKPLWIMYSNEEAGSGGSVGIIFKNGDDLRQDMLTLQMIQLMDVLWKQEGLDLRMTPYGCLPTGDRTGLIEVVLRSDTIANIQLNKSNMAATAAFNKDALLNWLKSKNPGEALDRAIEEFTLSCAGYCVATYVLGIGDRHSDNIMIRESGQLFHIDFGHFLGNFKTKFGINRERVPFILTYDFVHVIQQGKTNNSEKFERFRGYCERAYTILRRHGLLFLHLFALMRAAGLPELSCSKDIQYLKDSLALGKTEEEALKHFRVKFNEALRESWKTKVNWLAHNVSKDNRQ
The data set can be described thus: Inhibition of PI3Kdelta by high throughput chemoproteomics binding assay.

Data set [3] addresses Phosphatidylinositol 4,5-bisphosphate 3-kinase catalytic subunit alpha isoform (Homo sapiens, UniProt P42336). The data set can be described thus: Inhibition of PI3Kalpha by high throughput chemoproteomics binding assay.
Data set [4] deals with Phosphatidylinositol 4,5-bisphosphate 3-kinase catalytic subunit beta isoform (Homo sapiens, UniProt P42338). The data set can be described thus: Inhibition of PI3Kbeta by high throughput chemoproteomics binding assay.
Phosphatidylinositol 4,5-bisphosphate 3-kinase catalytic subunit beta isoform, sequence (P42338 whole entry, canonical isoform): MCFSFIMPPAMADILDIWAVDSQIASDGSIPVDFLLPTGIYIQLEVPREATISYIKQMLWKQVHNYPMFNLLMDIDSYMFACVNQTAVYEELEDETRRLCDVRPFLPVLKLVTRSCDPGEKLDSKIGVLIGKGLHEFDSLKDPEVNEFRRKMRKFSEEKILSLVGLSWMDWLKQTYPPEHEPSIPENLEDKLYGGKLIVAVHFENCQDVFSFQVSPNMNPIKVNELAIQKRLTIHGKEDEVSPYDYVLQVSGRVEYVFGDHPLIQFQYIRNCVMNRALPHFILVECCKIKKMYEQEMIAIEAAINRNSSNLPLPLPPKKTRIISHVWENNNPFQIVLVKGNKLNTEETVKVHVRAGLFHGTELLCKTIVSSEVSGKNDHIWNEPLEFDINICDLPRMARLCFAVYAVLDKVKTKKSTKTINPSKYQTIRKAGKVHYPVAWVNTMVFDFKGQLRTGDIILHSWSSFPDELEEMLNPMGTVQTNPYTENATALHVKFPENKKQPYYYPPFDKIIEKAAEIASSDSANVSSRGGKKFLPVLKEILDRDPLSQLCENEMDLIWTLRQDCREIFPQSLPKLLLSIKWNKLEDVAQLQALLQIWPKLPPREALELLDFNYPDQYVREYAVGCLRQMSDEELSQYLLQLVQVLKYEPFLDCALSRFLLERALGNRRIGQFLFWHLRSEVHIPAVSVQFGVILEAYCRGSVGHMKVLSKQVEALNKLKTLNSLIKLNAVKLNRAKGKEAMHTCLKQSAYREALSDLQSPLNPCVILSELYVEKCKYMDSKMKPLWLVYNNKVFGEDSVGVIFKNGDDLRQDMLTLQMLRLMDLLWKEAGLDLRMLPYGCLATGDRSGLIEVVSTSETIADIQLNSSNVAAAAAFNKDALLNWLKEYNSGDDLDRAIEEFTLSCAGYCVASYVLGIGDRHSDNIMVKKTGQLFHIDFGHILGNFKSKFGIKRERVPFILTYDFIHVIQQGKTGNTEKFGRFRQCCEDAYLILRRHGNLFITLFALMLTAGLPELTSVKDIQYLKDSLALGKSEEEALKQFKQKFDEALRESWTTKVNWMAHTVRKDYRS
The target of data set [5] is T1, Phosphatidylinositol 4,5-bisphosphate 3-kinase catalytic subunit gamma isoform. The data set can be described thus: Inhibition of PI3Kgamma assessed as inhibition of C5a-induced AKT phosphorylation at Ser473 by cell based assay.
The species entered for data set [6] is Homo sapiens. The data set can be described thus: Selectivity ratio of IC50 for PI3Kdelta to IC50 for PI3Kgamma.
Data set [7] is filed under the species Homo sapiens. The data set can be described thus: Selectivity ratio of IC50 for PI3Kalpha to IC50 for PI3Kgamma.
The species named for data set [8] is Homo sapiens. The data set can be described thus: Selectivity ratio of IC50 for PI3Kbeta to IC50 for PI3Kgamma.
Data set [9] is described as follows: Half life in human microsomes. Type of data set: ADME, Microsome.
A short description of data set [10]: Half life in rat microsomes. Type of data set: ADME, Microsome.
The nature of data set [11]: Half life in mouse microsomes. Type of data set: ADME, Microsome.
A short description of data set [12]: Protein binding in plasma. Type of data set: ADME, cell-free. The following applies: read-out: PPB.

Bounds are passed on as bounds.

The IC50 is the midpoint of a concentration-inhibition curve. Usually half-life stands for how long it takes for the measured level to halve. A lower half-life goes with rapid decline.

T1 sequence (P48736 whole entry, canonical isoform): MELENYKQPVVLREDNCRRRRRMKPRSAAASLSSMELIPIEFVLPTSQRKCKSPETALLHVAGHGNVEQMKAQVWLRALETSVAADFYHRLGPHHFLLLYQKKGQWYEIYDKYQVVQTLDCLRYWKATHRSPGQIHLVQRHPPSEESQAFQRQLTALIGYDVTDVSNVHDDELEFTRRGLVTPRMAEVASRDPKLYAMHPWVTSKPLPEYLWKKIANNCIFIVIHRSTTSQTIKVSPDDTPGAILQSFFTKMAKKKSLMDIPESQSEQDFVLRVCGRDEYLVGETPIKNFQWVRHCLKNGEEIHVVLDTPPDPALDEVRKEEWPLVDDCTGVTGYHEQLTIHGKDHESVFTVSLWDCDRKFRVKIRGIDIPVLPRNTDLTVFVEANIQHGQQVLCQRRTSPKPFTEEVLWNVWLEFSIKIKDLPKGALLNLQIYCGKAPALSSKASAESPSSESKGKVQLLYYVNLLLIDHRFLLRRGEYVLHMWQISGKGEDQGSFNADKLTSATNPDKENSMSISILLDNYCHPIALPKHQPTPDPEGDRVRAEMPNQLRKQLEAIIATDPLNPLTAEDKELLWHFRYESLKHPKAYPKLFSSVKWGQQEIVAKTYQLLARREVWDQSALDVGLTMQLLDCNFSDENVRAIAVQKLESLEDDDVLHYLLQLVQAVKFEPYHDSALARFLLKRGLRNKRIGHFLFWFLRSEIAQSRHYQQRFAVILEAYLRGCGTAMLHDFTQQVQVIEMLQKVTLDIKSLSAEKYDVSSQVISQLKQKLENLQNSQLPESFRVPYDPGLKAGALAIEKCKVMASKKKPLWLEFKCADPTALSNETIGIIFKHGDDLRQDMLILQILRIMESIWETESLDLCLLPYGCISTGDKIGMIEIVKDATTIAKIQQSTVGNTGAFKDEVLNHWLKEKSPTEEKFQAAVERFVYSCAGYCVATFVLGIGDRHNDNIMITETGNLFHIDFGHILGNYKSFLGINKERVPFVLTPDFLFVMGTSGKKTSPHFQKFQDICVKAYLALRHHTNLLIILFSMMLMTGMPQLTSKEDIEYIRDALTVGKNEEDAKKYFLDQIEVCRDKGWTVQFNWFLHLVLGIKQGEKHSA
Phosphatidylinositol 4,5-bisphosphate 3-kinase catalytic subunit alpha isoform, sequence (P42336 whole entry, canonical isoform): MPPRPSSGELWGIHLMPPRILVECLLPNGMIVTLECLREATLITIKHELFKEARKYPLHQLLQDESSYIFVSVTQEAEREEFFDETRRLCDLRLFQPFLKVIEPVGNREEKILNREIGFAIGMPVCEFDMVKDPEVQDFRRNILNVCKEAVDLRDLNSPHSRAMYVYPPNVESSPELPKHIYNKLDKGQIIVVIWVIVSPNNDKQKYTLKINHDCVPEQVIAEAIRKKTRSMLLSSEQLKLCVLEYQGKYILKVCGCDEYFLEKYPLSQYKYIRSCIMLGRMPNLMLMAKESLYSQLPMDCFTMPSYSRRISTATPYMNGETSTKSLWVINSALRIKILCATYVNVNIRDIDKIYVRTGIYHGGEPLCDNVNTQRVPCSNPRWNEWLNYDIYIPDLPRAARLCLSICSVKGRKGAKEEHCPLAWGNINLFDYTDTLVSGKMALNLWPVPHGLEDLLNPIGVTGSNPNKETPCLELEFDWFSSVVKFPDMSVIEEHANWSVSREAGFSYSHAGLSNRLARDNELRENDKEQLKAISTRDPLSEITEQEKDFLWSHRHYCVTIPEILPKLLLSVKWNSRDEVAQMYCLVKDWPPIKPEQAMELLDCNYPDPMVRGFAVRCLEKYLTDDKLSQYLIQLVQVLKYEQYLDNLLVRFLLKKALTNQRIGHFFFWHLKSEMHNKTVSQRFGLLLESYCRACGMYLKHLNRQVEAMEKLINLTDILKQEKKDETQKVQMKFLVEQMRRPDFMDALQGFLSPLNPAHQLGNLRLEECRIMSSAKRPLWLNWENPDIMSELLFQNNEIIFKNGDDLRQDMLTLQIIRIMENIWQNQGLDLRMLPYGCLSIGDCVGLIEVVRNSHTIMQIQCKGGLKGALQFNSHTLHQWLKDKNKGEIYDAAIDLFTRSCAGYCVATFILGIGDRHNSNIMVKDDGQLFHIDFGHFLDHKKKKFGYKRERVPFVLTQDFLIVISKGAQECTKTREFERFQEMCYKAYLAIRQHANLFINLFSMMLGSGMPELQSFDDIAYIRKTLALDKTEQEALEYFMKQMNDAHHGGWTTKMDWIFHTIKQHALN

For `CC(=O)Nc1nc2c(C)cc(-c3cncc(S(C)(=O)=O)c3)cn2n1`, the IC50 in data set [1] was 0.1 µM; in data set [2] it was greater than 5.01 µM; in data set [3], greater than 39.8 µM; in [4], 20 µM.

For the molecule `CS(=O)(=O)c1cncc(-c2cc(Cl)c3nc(N)nn3c2)c1`, the IC50 is 2 µM in data set [1], greater than 100 µM in data set [2], greater than 100 µM in data set [3] and greater than 100 µM in [4].

Turning to `CC(=O)Nc1nc2ccc(-c3cccc(S(C)(=O)=O)c3)cn2n1`, the IC50 in [1] was 0.501 µM; in [2], 3.16 µM; in data set [3], greater than 50.1 µM; in data set [5], greater than 12.6 µM.

Consider `CC(=O)Nc1nc2ccc(-c3cc(C)c(O)c(C)c3)cn2n1`, for which the IC50 was 2 µM in data set [1], 6.31 µM in data set [2], 12.6 µM in [3] and 20 µM in data set [4]. Further, the Ratio IC50 in data set [6] turned out to be 5; in data set [7], 6.3; in data set [8] it was 10.

With `Nc1nc2ccc(-c3cncc(S(=O)(=O)NCC4CC4)c3)cn2n1`, the IC50 in [1] is 0.0158 µM; in data set [2] it was greater than 6.31 µM; in data set [3], 3.16 µM; in data set [5], 2 µM.

For the molecule `Nc1nc2ccc(-c3cncc(S(=O)(=O)NCc4ccccc4)c3)cn2n1`, the IC50 in data set [1] is 0.251 µM; in [2], 7.94 µM; in data set [3] it was greater than 20 µM; in data set [5], 1.26 µM.

As to `CC(=O)Nc1nc2ccc(-c3cncc(S(C)(=O)=O)c3)cn2n1`, the half-life in data set [9], in data set [10] and in data set [11] was greater than 45 min throughout.

Regarding `CC(=O)Nc1nc2c(F)cc(-c3cncc(S(C)(=O)=O)c3)cn2n1`, the IC50 in data set [1] is 0.126 µM; in data set [2], greater than 20 µM; in [3], greater than 20 µM; in [4] it was 20 µM.

`Nc1nc2ccc(-c3cncc(S(=O)(=O)Nc4ccc(Cl)cc4)c3)cn2n1`: the IC50 in data set [1] was 0.631 µM; in data set [2], 6.31 µM; in data set [3], 3.98 µM; in [5] it was greater than 12.6 µM.

With `CC(C)(C)S(=O)(=O)c1cncc(-c2ccc3nc(N)nn3c2)c1`, the IC50 is 0.158 µM in data set [1], 3.16 µM in [2], greater than 15.8 µM in [3] and greater than 10 µM in data set [5].

With `CC(=O)Nc1nc2cc(C)c(-c3cncc(S(C)(=O)=O)c3)cn2n1`, the IC50 in [1] is greater than 100 µM; in data set [2], greater than 100 µM; in data set [3], greater than 100 µM; in data set [4], 200 µM.

For `CC(C)(C)NS(=O)(=O)c1cncc(-c2cn3nc(N)nc3cc2F)c1`, the IC50 in [1] was 25.1 µM; in [2] it was greater than 100 µM; in data set [3] it was greater than 100 µM; in [4] it was greater than 100 µM.

As to `CS(=O)(=O)c1cncc(-c2ccc3nc(N)nn3c2)c1`, the IC50 in data set [5] was 2 µM.

On to `CC(=O)Nc1nc2ccc(-c3cncc(S(C)(=O)=O)c3)c(C)n2n1`, for which the IC50 in [1] was 1 µM; in data set [2] it was greater than 39.8 µM; in [3], greater than 100 µM; in [4], 25.1 µM.

Consider `COc1ccccc1-c1ccc2nc(NC(C)=O)nn2c1`, for which the concentration for half-maximal inhibition (IC50) is 3.98 µM in [1], 31.6 µM in [2], greater than 100 µM in data set [3] and greater than 100 µM in [4]. Moreover, the Ratio IC50 in [6] is 5; in data set [7], greater than 30; in data set [8], greater than 30.

In the case of `CC(=O)Nc1nc2ccc(-c3cccnc3)cn2n1`, the figures for the IC50 in [1], in data set [2] and in [3] were 0.251 µM, greater than 31.6 µM and 15.8 µM, respectively. Further, the Ratio IC50 in data set [6] and in data set [7] was greater than 60 throughout.

With `Nc1nc2ccc(-c3cncc(NS(=O)(=O)c4ccc(Cl)cc4)c3)cn2n1`, the IC50 is 0.00631 µM in data set [1], 0.398 µM in data set [2], 0.158 µM in data set [3] and 2 µM in data set [5]. Further, the fraction unbound in data set [12] was less than 0.01.

Consider `CC(=O)Nc1nc2ccc(-c3cnn(C)c3)cn2n1`, for which the IC50 in data set [1] is 3.98 µM; in [2], greater than 100 µM; in data set [3], greater than 63.1 µM.

For `CC(C)NS(=O)(=O)c1cncc(-c2ccc3nc(N)nn3c2)c1`, the IC50 in data set [1] was 0.0316 µM; in data set [2] it was 1.58 µM; in data set [3], 2.51 µM; in data set [5] it was 1.58 µM. Besides, the half-life in [9], in data set [10] and in data set [11] was greater than 45 min each time.

On to `COc1cccc(-c2ccc3nc(NC(C)=O)nn3c2)c1`, for which the IC50 in data set [1] was 0.158 µM; in [2], greater than 79.4 µM; in data set [3], greater than 79.4 µM.

Turning to `CS(=O)(=O)Nc1cccc(-c2ccc3nc(NC(=O)C4CCCCC4)nn3c2)c1`, the IC50 in [1] was 0.316 µM; in [2], 0.501 µM; in [3] it was greater than 100 µM.

As to `CC(=O)Nc1nc2ccc(-c3cncc(CS(N)(=O)=O)c3)cn2n1`, the results for the IC50 in data set [1], in data set [2] and in [3] were 0.00794 µM, greater than 1 µM and greater than 0.1 µM, respectively.
